Source: patent US9506938B2, “Methods for measuring platelet reactivity of individuals treated with drug eluting stents” (ACCUMETRICS, INC., priority 2007, dated 2016)
pIC50: −log10 of the molar value. “And” between values parts separate entries of the source, which are not always exact repeats. Equal entries are not always repeated. Where two headings read alike, the source gives them in different places.

Experiments:
P2Y12 receptor [1] = biological target: T1, P2Y12 receptor (Homo sapiens, UniProt Q9H244); details: for percentage of inhibition: on clopidogrel at time of procedure; for percentage inhibition: clopidogrel naive, loaded with 600 mg
Text: The VerifyNow™ System instrument is a turbidimetric-based optical detection system that measures platelet induced aggregation as an increase in light transmittance. The system includes an analyzer, disposable cartridge and controls. The cartridge contains reagents based on microparticle agglutination technology. The quality control system includes an electronic control, two levels of assayed “wet” controls (WQC), an in-cartridge humidity sensor, an in-packaging temperature indicator, and a test for concurrence of two assay channels. […] For use in the present methods the test cartridge of the system contains a lyophilized preparation comprising particles with passively bound GPIIb/IIIa receptor ligand, a composition of ADP and PGE1, and buffer. The patient sample is usually citrated whole blood, which is automatically dispensed from the blood collection tube into the cartridge by the analyzer, with no blood handling required by the user. The interaction is monitored by the infrared absorbency characteristics of the particles. As the particles interact with the platelets, the agglutination of the particles is measured through the optical system of the VerifyNow™ analyzer. The agglutination is detected as an increase in the transmission of infrared light through the sample. The reaction kinetics are analyzed and translated into “P2Y12 Response Units”, PRU.
Whole blood was obtained from the side port of the arterial sheath prior to anticoagulant or anti-thrombin therapy and by phlebotomy 12 hours post-PCI.
All patients received 325 mg uncoated aspirin the day of the procedure regardless of previous aspirin use. […] Either intra-procedural heparin (with a goal activated clotting time of >250 sec) or bivalirudin were administered during the procedure at operator discretion.
Patients were judged to be insulin resistant if their Homeostasis Model Assessment index, calculated as: [fasting insulin (μU/mL)]*[fasting glucose (mg/dl)]/405, was >3.0 or if they had diabetes requiring medication.

[2] = system: patients undergoing PCI with DES
Description: Interventional strategy was at the discretion of the operator. Either intra-procedural unfractionated heparin (with a goal-activated clotting time>250 s) or bivalirudin was used during the procedure. All patients received SES, and they received aspirin 325 mg on the day of the procedure regardless of previous aspirin use.
“Technical success” was defined as a final diameter stenosis ≦30% and thrombolysis in myocardial infarction (TIMI) flow grade 3. Clinical endpoints measured were cardiovascular (CV) death, non-fatal myocardial infarction (MI), and stent thrombosis. “MI over follow-up” was defined as any typical rise and fall of cardiac biomarkers in the setting of clinical signs or symptoms consistent with cardiac ischaemia, following the American College of Cardiology definition (Cannon, et al., J. Am. Coll. Cardiol. (2001) 38:2114-2130). The Academic Research Consortium definitions were used for “stent thrombosis” (definite, probable, and possible) (Mauri, et al., N. Engl. J. Med. (2007) 356:1020-1029). “Subacute stent thrombosis” was defined as stent thrombosis occurring after discharge to 30 day follow-up, and late-stent thrombosis was defined as stent thrombosis occurring between 30 day and 6 month follow-ups.
The computer-based analysis program SPSS (Statistical Package for the Social Sciences, 12.0 for PC, SPSS Inc., Chicago, Ill., USA) was used for statistical calculations. […] Comparison of continuous variables was performed using Student's t-test. The χ^2 test was used to detect differences in categorical variables, and a Fisher's exact test was used when any expected cell count was <5 for a 2 by 2 table. The Kolmogorov-Smirnov test was used to test for normality. A receiver-operating characteristic (ROC) curve analysis was used to determine the ability of the VERIFYNOW™ P2Y12 assay to distinguish between patients with and without post-discharge events after PCI. The optimal cut-off point was calculated by determining the post-treatment PRU that provided the greatest sum of sensitivity and specificity. Bootstrap validation was performed using R software. Survival curves were generated using the Kaplan-Meier method, and the difference between curves was assessed by log-rank test. A P-value<0.05 was considered significant.

platelet aggregation = details: Muller et al. 2003; cited from earlier work
P2Y12 receptor [3] = biological target: T1, P2Y12 receptor; assay: VerifyNow P2Y12 assay, post-treatment platelet reactivity (PRU) in patients with sirolimus-eluting stents (Example 3); type: in vivo; set-up: The patient sample is usually citrated whole blood; endogenous in cells; host or cells: platelets in citrated whole blood of patients
Description: Patients on clopidogrel therapy or who were clopidogrel naïve were eligible for inclusion. […] The assay contains […] and 22 nM prostaglandin E1 to reduce the activation contribution from ADP binding to P2Y1 receptors. […] With this assay, a higher PRU reflects greater ADP-mediated platelet reactivity. The mean coefficient of variation of test precision has been reported to be 3.2% in patients with coronary artery disease. Interventional strategy was at the discretion of the operator.

[4] = system: ADP-induced human platelet aggregation; details: read-out: IC50 for the inhibition of ADP-induced human platelet aggregation; cited from earlier work
[5] = after discharge, 6 month follow-up, all patients
[6] = clopidogrel for minimum 3 months, high reactivity (n = 121)
[7] = clopidogrel for minimum 3 months, lower reactivity (n = 252)
[8] = clopidogrel for minimum 3 months, overall group (n = 373)
[9] = clopidogrel through 6 month follow-up, high reactivity (n = 108)
[10] = clopidogrel through 6 month follow-up, lower reactivity (n = 258)
[11] = clopidogrel through 6 month follow-up, overall group (n = 317)
[12] = patients with high post-treatment reactivity
[13] = patients without high post-treatment reactivity

T1 sequence (Q9H244 whole entry): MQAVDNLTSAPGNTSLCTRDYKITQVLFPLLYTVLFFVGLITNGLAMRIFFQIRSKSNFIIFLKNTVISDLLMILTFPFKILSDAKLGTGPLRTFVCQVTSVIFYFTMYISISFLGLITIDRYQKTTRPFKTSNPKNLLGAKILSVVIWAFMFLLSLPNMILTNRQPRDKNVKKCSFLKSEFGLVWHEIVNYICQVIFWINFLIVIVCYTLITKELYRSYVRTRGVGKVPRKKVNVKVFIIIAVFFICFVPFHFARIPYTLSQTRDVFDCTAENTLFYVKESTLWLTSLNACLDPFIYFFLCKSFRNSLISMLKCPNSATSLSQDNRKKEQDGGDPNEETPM

## COC(=O)[C@H](c1ccccc1Cl)N1CCc2sccc2C1 [clopidogrel]
P2Y12 receptor [1]; Patient No. 1, acute thrombosis 80 minutes after PCI
  percentage of inhibition: 0%
P2Y12 receptor [1]; Patient No. 2, sub-acute thrombosis 6 days following PCI
  percentage of inhibition: 0%
P2Y12 receptor [1]; Patient No. 3, sub-acute thrombosis 34 days following PCI
  percentage inhibition: 0%
P2Y12 receptor [1]; Patient No. 4, sub-acute thrombosis 8 days following PCI
  percentage inhibition: 44%
P2Y12 receptor [1]; point-of-care assay, N = 280
  share of patients undergoing PCI with clopidogrel-induced platelet inhibition <10%: one quarter
[2]; 30 day to 6 month follow-up
  overall rate of late-stent thrombosis: 0.8%
[2]; [5]
  Non-fatal MI: 1.3%
  combined endpoint of CV death, non-fatal MI, or stent thrombosis: 2.6%
  episodes of stent thrombosis: 1.6%
[2]; [6]
  Non-fatal MI: 2 (1.7) n (%)
  Stent thrombosis: 5 (4.1) n (%)
[2]; [7]
  Non-fatal MI: 2 (0.8) n (%)
  Stent thrombosis: 0 n (%)
[2]; [8]
  Non-fatal MI: 4 (1.1) n (%)
  Stent thrombosis: 5 (1.3) n (%)
[2]; [9]
  Non-fatal MI: 2 (1.9) n (%)
  Stent thrombosis: 5 (4.6) n (%)
[2]; [10]
  Non-fatal MI: 2 (1.0) n (%)
  Stent thrombosis: 0 n (%)
[2]; [11]
  Non-fatal MI: 4 (1.3) n (%)
  Stent thrombosis: 5 (1.6) n (%)
[2]; discharge to 30 day follow-up
  overall rate of subacute stent thrombosis: 0.8%
[2]; [12]
  rate of CV mortality: 2.8%
  rate of all-cause death, non-fatal MI, or stent thrombosis: 6.5%
  rate of any stent thrombosis: 4.6%
  rate of combined endpoint of CV death, non-fatal MI, or stent thrombosis: 6.5%
  rate of definite or probable stent thrombosis: 2.8%
  survival rate free from the combined endpoint of CV death, non-fatal MI, or stent thrombosis: 91.4%
[2]; [13]
  rate of CV mortality: 0%
  rate of all-cause death, non-fatal MI, or stent thrombosis: 1.4%
  rate of any stent thrombosis: 0%
  rate of combined endpoint of CV death, non-fatal MI, or stent thrombosis: 1.0%
  rate of definite or probable stent thrombosis: 0%
  survival rate free from the combined endpoint of CV death, non-fatal MI, or stent thrombosis: 99.0%
Platelet aggregation
  patients receiving the drug who did not achieve the expected platelet aggregation inhibition: at least 10%
P2Y12 receptor [3]; all patients, n = 380
  mean post-treatment reactivity: 184±85 PRU
P2Y12 receptor [3]; clopidogrel-naive patients, 12 h after 600 mg loading dose
  post-treatment reactivity: 183±94 PRU
P2Y12 receptor [3]; individual patients
  post-treatment reactivity of the patients who had stent thrombosis while taking antiplatelet therapy: 283 PRU and 292 PRU and 236 PRU and 244 PRU and 271 PRU
P2Y12 receptor [3]; patients on previous clopidogrel therapy
  post-treatment reactivity: 186±73 PRU
P2Y12 receptor [3]; patients with adverse events
  platelet reactivity: 242 PRU
P2Y12 receptor [3]; patients without adverse events
  platelet reactivity: 186 PRU

## CCCCC[C@H](O)/C=C/[C@H]1[C@H](O)CC(=O)[C@@H]1CCCCCCC(=O)O [PGE1, prostaglandin E1]
[4]
  pIC50: ~7.40

## bivalirudin
P2Y12 receptor [3]; patients receiving intra-procedural heparin or bivalirudin
  post-treatment reactivity on clopidogrel by intra-procedural anticoagulant: 184±84 PRU
